# Like-named read-outs stand apart in the source and are kept apart here.
# Tests used:
# Format in all cases: cell-based
# [1] = test system: Staphylococcus aureus ATCC 25923; assay: Kirby-Bauer disk diffusion susceptibility test (inhibition zone); conditions: S. aureus ATCC 25923; 12.5, 25, 50 and 100 μg per disc; FIG. 1
# Procedure: (§1) FIG. 1: Kirby-Bauer Disk diffusion susceptibility test on Staphylococcus aureus ATCC 25923 with compounds Ia, Ib and Ic at 12.5, 25, 50 and 100 μg and the reference gentamicin at 10 μg; left: graph representing the diameter of the inhibition zone as a function of each sample; right: photo of the petri dish illustrating the inhibition zones with Ic at 12.5, 25, 50 and 100 μg.
# (§2) Pathogenic bacteria were revived by streaking bacteria on 100 mm Petri dishes containing the suitable medium recommended by ATCC protocol, overnight at 30 to 37° C.: Luria-Bertani Broth (LB, Difco, Thermo Fisher Scientific Inc.), Tryptic Soy Broth (TSB, Difco, Thermo Fisher Scientific Inc.), Nutrient Broth (NB, Difco, Thermo Fisher Scientific Inc.), supplemented with 2% of agar (Granulated Agar, Difco, Thermo Fisher Scientific Inc.).
# (§3) For each pathogen, several colonies were collected with a loop and transferred in 5 ml of sterile NB medium and incubated on a rotary shaker (130 rpm) overnight at 30 to 37° C.
# (§4) 150 mm Nutrient Broth Agar plates were swabbed with inocula and kept for 15 min for absorption. Pre-sterilized six-millimeter Whatman No. 1 discs were placed in the Petri dishes and 12.5, 25, 50 and 100 μg of the test compounds in DMSO (10 mg/ml) were applied to the sterile disc papers. The standard drug gentamycin (10 μg) was used as a positive reference standard to determine the sensitivity of each bacterial species and DMSO as a negative control. Then the plates were incubated at 30° or 37° C. for 24 h and inhibition diameters were measured.
# Compounds Ia to Ic have also been tested on the following pathogenic bacteria in order to evaluate their inhibition efficacy by the Petri dish inhibition zone method: • Staphylococcus aureus ATCC 25923—Gram-positive (compounds Ia, Ib and Ic tested) • Enterobacter cloacae ATCC 13047—Gram-negative (compounds Ia and Ib tested) • Acinetobacter baumannii ATCC 19606—Gram-negative (compounds Ib and Ic tested) • Escherichia coli ATCC 25922—Gram-negative (compounds Ia and Ib tested) […]
# [2] = test system: Enterobacter cloacae ATCC 13047; assay: as above; conditions: 12.5, 25, 50 and 100 μg per disc, FIG. 2
# Procedure: as §1, with “2:” for “1:”, “Enterobacter cloacae” for “Staphylococcus aureus”, “13047” for “25923”, “Ia and” for “Ia,”, “Ib” for “Ib and Ic”, “Ia” for “Ic”
# as §2, §3
# as §4, with “The standard drug gentamycin (10 μg) was used as a positive reference standard to determine the sensitivity of each bacterial species and DMSO as a negative control.” left out, “measured. […]” for “measured.”
# [3] = test system: Acinetobacter baumannii ATCC 19606; assay: as above; conditions: 12.5, 25, 50 and 100 μg per disc, FIG. 3
# Procedure: (§5) FIG. 3: Kirby-Bauer Disk diffusion susceptibility test on Acinetobacter baumanii ATCC 19606 with compounds Ib and Ic at 12.5, 25, 50 and 100 μg and the reference gentamicin at 10 μg; left: graph representing the diameter of the inhibition zone as a function of each sample; right: photo of the petri dish illustrating the inhibition zones with Ib and Ic at 12.5, 25, 50 and 100 μg.
# as §2, §3
# as §4, with “The standard drug gentamycin (10 μg) was used as a positive reference standard to determine the sensitivity of each bacterial species and DMSO as a negative control.” left out, “measured. […]” for “measured.”
# [4] = test system: Escherichia coli ATCC 25922; assay: as above; conditions: for inhibition activity (inhibition zone): 12.5, 25, 50 and 100 μg per disc, FIG. 4; for inhibition of growth at 100 µg/disc: ATCC25922, 24 h, 100 μg of compound
# Procedure: as §5, with “FIG. 4:” for “FIG. 3:”, “on Escherichia coli” for “on Acinetobacter baumanii”, “ATCC 25922” for “ATCC 19606”, “compounds Ia and” for “compounds”, “Ib” for “Ib and Ic”, “with Ia” for “with Ib and Ic”
# as §2, §3, §4
# Compounds Ia to Ic have also been tested on the following pathogenic bacteria in order to evaluate their inhibition efficacy by the Petri dish inhibition zone method: • Staphylococcus aureus ATCC 25923—Gram-positive (compounds Ia, Ib and Ic tested) • Enterobacter cloacae ATCC 13047—Gram-negative (compounds Ia and Ib tested) • Acinetobacter baumannii ATCC 19606—Gram-negative (compounds Ib and Ic tested) • Escherichia coli ATCC 25922—Gram-negative (compounds Ia and Ib tested)
# This technique enables to visualize the potential for inhibiting the growth of target pathogenic bacteria. A dose-response study at 12.5, 25, 50 and 100 μg of each compound has been carried out, comparing the inhibition zones with 10 μg gentamicin. […] Best results are obtained for Gran negative bacteria, especially Enterobacter cloacae as represented on FIG. 2.
# Compounds Ib, Ic, Ij, Ik, Il, Im, Ih, Ig, Ii, Id and If have also been tested on the following pathogenic bacteria in order to evaluate their inhibition efficacy by the Petri dish inhibition zone method: • Micrococcus luteus ATCC10240; • Bacillus subtilis ATCC6633; • Escherichia coli ATCC 25922.
# The percentage of inhibition growth at 100 μg of each tested compound has been determined.
# [5] = test system: Bacillus subtilis ATCC6633; assay: Petri dish inhibition zone method, % inhibition of growth; conditions: 24 h, 100 μg of compound
# Procedure: (§6) Pathogenic bacteria were revived by streaking bacteria on 100 mm Petri dishes containing the suitable medium recommended by ATCC protocol, overnight at 30 to 37° C.: Luria-Bertani Broth (LB, Difco, Thermo Fisher Scientific Inc.), Tryptic Soy Broth (TSB, Difco, Thermo Fisher Scientific Inc.), Nutrient Broth (NB, Difco, Thermo Fisher Scientific Inc.), supplemented with 2% of agar (Granulated Agar, Difco, Thermo Fisher Scientific Inc.). For each pathogen, several colonies were collected with a loop and transferred in 5 ml of sterile NB medium and incubated on a rotary shaker (130 rpm) overnight at 30 to 37° C. 150 mm Nutrient Broth Agar plates were swabbed with inocula and kept for 15 min for absorption. Pre-sterilized six-millimeter Whatman No. 1 discs were placed in the Petri dishes and 12.5, 25, 50 and 100 μg of the test compounds in DMSO (10 mg/ml) were applied to the sterile disc papers. The standard drug gentamycin (10 μg) was used as a positive reference standard to determine the sensitivity of each bacterial species and DMSO as a negative control. Then the plates were incubated at 30° or 37° C. for 24 h and inhibition diameters were measured. Compounds Ib, Ic, Ij, Ik, Il, Im, Ih, Ig, Ii, Id and If have also been tested on the following pathogenic bacteria in order to evaluate their inhibition efficacy by the Petri dish inhibition zone method: • Micrococcus luteus ATCC10240; • Bacillus subtilis ATCC6633; • Escherichia coli ATCC 25922. The percentage of inhibition growth at 100 μg of each tested compound has been determined.
# [6] = test system: Micrococcus luteus ATCC10240; assay: as above; conditions: 24 h, 100 μg of compound
# Procedure: as §6
# [7] = test system: Staphylococcus aureus ATCC 25923; assay: Minimum inhibitory concentration (MIC), microbroth dilution assay; conditions: Mueller-Hinton broth
# Procedure: as §2, with “Inc.)” for “Inc.).”
# (§7) For each pathogen, several colonies were collected with a loop and transfered in 10 ml of sterile Mueller-Hinton broth (Sigma) medium and incubated on a rotary shaker (130 rpm) […] at 30 to 37° C. The OD at 600 nm was measured and adjusted to 0.5 OD, then the solution was diluted 400-fold to have the appropriate inoculum
# (§8) The antimicrobial susceptibility was carried out by microbroth dilution assay. Tests were performed on 96-well plates with 100 μL of Mueller-Hinton broth (Sigma) medium final volume and a final bacterial concentration of 5.10^5 CUF/ml. The tested compounds were solubilized in dimethyl sulfoxide (DMSO) given 10 mg/mL (then expressed in μM) stock solution. The stock solutions were diluted from 100 μg/ml to 0.195 μg/ml for testing.
# (§9) Compounds Ia to Ie have also been tested on Staphylococcus aureus ATCC 25923 strain and Staphylococcus aureus BAA-1766 (MRSA) strain (both Gram-positive) by using the screening method of the measurement of MIC (minimum inhibitory concentration).
# (§10) This technique enables to determine the minimum concentration that causes total inhibition of the growth of the target pathogen.
# [8] = test system: Staphylococcus aureus BAA-1766 (MRSA); assay: as above; conditions: S. aureus BAA-1766 (MRSA), Mueller-Hinton broth
# Procedure: as §2, with “Inc.)” for “Inc.).”
# as §7, §8, §9, §10
# [9] = Staphylococcus aureus, ATCC25923, S. aureus ATCC 25923, read-out: MIC
"MIC [7, 9] [µg/mL]",MIC [8] [µg/mL],MIC ([7]; S. aureus ATCC 25923) [µg/mL],Compound,inhibition activity (inhibition zone) [1],inhibition activity (inhibition zone) [2],inhibition activity (inhibition zone) [3],inhibition activity (inhibition zone) [4],inhibition of growth at 100 µg/disc [4] [%],inhibition of growth at 100 µg/disc [5] [%],inhibition of growth at 100 µg/disc [6] [%]
12.5,18.8,,O=C1C=C[C@H](O)[C@H]1c1ccc(Cl)cc1 (racemic) [Ib],inhibition activity,inhibition activity,inhibition activity,inhibition activity,60,51,68
6.25,37.5,6.26,O=C1C=C[C@H](O)[C@H]1c1ccccc1Cl (racemic) [Ic],inhibition activity,,inhibition activity,,35,31,33
12,12,,O=C1C=C[C@@](O)(CO)[C@H]1c1ccc(Cl)cc1 (racemic) [Id],,,,,45,30,0
6.25,6.25,,CC(=O)O[C@H]1C=CC(=O)[C@@H]1c1ccccc1 (racemic) [Ie],,,,,,,
,,,O=C1C=C[C@@](O)(CO)[C@H]1c1ccccc1 (racemic) [If],,,,,57,0,21
,,,O=C1C=C[C@@](O)(CO)[C@H]1c1ccc(F)cc1 (racemic) [Ig],,,,,55,18,0
,,,COc1ccc([C@H]2C(=O)C=C[C@@]2(O)CO)cc1 (racemic) [Ih],,,,,55,0,0
,,,O=C1C=C[C@@](O)(CO)[C@H]1c1ccc2c(c1)OCO2 (racemic) [Ii],,,,,45,0,0
,,,COc1ccc(C2C(=O)C=C[C@@H]2O)cc1 (mixture of isomers) [Ij],,,,,62,61,39
,,,COc1cccc(C2C(=O)C=C[C@@H]2O)c1 (mixture of isomers) [Ik],,,,,42,48,23
,,,O=C1C=C[C@H](O)C1c1ccc2ccccc2c1 (mixture of isomers) [Il],,,,,40,57,50
,,,O=C1C=C[C@H](O)C1c1cccc2ccccc12 (mixture of isomers) [Im],,,,,47,56,51
25,> 50,,"O=C1C=C[C@H](O)[C@H]1c1ccccc1 (relative stereo) [Ia, (4S*,5R*)-4-hydroxy-5-phenyl-cyclopent-2-en-1-one]",inhibition activity,inhibition activity,,inhibition activity,,,

# From US12612354B2, “Cyclopentenones derivatives and their use as antibiotics” (Centre National de la Recherche Scientifique (CNRS), priority 2020, dated 2026)
